Laboratory results published in patent US8163953B2, “Compounds for lysosomal modulation and methods of use” (University of Connecticut, priority 2008, dated 2012).
“Also recorded” adds a separate entry of the source. Read-outs that look alike come from different tables or passages of the source. Each block holds one compound with its values, some of them ahead of it. Peptide text beside a SMILES is read from it. * marks the point of attachment. Cbz = O=C(OCc1ccccc1)*; CHN2 = [N-]=[N+]=C*

How the values were obtained:
cathepsin = assay: Cathepsin enhancement and synaptic marker recovery in a protein accumulation model; assay type: cell-based
Description: Increased lysosomal enzyme activities are an indicator of cellular responses aimed at compensating for accumulating material. Evidence of compensatory up-regulation of lysosomal enzymes in response to lysosome stress and protein accumulation has led to the identification of a pharmacological avenue for promoting such responses. This pharmacological avenue has been used to identify and synthesize the compounds described herein, which are effective as lysosomal modulators. The base structures of PADK and Z-Phe-Phe-diazomethylketone (PPDK) were used for the design of new lysosomal modulators because PADK and PPDK enhance cathepsin levels at 0.3-10 μM, resulting in 70-80% recovery of synaptic markers that were lost in a protein accumulation model. Other modulators, including diazoacetyl-DL-2-aminohexanoic acid methyl ester, require up to 30 μM to produce neuroprotective effects, but result in only 24-42% synaptic recovery.

cathepsin D = assay: Cathepsin D up-regulation in hippocampal slice cultures (immunoblot); assay type: cell-based; conditions: for EC50: increase of cathepsin D levels, slices treated daily for 3-6 days; for potency of increasing cathepsin D levels (in words) / EC2-fold (concentration needed for a 2-fold increase in cathepsin levels): hippocampal slice cultures; for potency of increasing cathepsin D levels (in words): treated daily 3-6 days
Experimental: The cultured slices were treated daily with different modulator concentrations for 3-6 days. […] BW1001 was not tested further due to its low potency.
The hippocampal slices were maintained in culture for 10-12 days to stabilize, then were treated daily with different modulator concentrations for 3 days. Then they were harvested rapidly in ice-cold buffer and homogenized in the presence of protease inhibitors.
Equal protein aliquots of the slice samples were subjected to immunoblotting to label the proform and the active form of cathepsin D (CD). FIG. 3A is an immunoblot showing PADK induced increases in the proform and active form of cathepsin D in hippocampal slice cultures. FIG. 3B is a graph showing the dose-dependent up-regulation of cathepsin D in hippocampal slice cultures by PADK and by BW1002.
Slices were treated daily for 3 days with 10 μM compound, then harvested rapidly for immunoblot assessment of active CD levels (ANOVA: P<0.0001). FIG. 5 is a bar graph showing the results of these tests. The data in FIG. 5 indicate that the non-peptide lysosomal modulators provide potent lysosomal modulation that enhances clearance of pathogenic accumulations. All data represent means±SEM.

[1] = test system: pre- and postsynaptic markers; assay: Synaptic marker assessment in treated slice cultures
Experimental: (§4) Potential toxicity was tested by assessing synaptic markers and subjecting media samples from the treated slice cultures to a standard LDH assay.

[2] = test system: hippocampal slice cultures; assay: LDH assay on media of treated slice cultures; conditions: for LDH release: media samples from treated slice cultures
Experimental: as §4

[3] = test system: hippocampal slice cultures
Experimental: as §4

[4] = test system: pre- and postsynaptic markers
Experimental: as §4

[5] = test system: PDGF-APPSwInd transgenic mice; assay: Synaptic protection in PDGF-APPSwInd transgenic mice (GluR1); assay type: in vivo; conditions: daily i.p.; BW1005 45 mg/kg, BW1002 25 mg/kg
Experimental: Modulator BW1005, was administered daily i.p. into an Alzheimer's Disease model —PDGF-APPSwInd transgenic mice. The transgenic mice are hemizygotes for a mutant form of the human APP gene containing both the Swedish (K670N/M671L) and the Indiana (V717F) mutations (APPSwInd). […] Based on its potency in relation to PADK's effect in slices and mice, BW1005 was injected i.p. daily at a dose of 45 mg/kg.
The brains of the mice were dissected and assessed for the postsynaptic marker GluR1. […] FIG. 7 is a bar graph showing the mean GluR1 measure ±SEM for each group studied (post hoc test: p=0.05). […] Changes in cathepsin levels may explain the synaptic protection.

[6] = test system: APPSwInd and APPswe/PS1ΔE9 mice; assay: Synaptic markers in APPSwInd and APPswe/PS1ΔE9 mice treated with PADK; assay type: in vivo; conditions: two Alzheimer's mouse models, immunoblot of homogenates
Experimental: To compare the BW1002/1005 results to previous PADK work, homogenate samples were analyzed by immunoblot for the presynaptic protein synapsin II and postsynaptic glutamatergic marker GluR1.

cathepsins B and D = conditions: in vivo; cited from earlier work
[7] = Adverse-effect assessment of PADK dosing in 10 month old mice; assay type: in vivo
Experimental: (§1) The modulator PADK up-regulates cathepsins without causing adverse effects. Hippocampal homogenates were assessed for the mice. FIGS. 6A-D are graphs showing the effects of PADK doping on various biological and physical attributes of 10 month old mice.
(§2) FIG. 6D is a graph showing the results of motor skills and spatial memory tests. Motor skills and coordination were assessed using a variable-speed rotating rod and measuring the time the animal could remain moving on the rod. Spatial memory was tested with a conditions place preference (CPP) North-South paradigm in which the animal must remember where a previous reward was presented. Thus, the lysosomal modulation occurred in the absence of any evident effects on liver/kidney integrity, blood urea levels, or on normal brain functionality.

[8] = test system: human paired helical filaments (PHFs); assay: Chloroquine-induced hippocampal slice model of protein accumulation, PHF immunostaining; assay type: cell-based; conditions: 6 days chloroquine, then 3 μM for 2 days
Description: FIGS. 2A-C are immunostains of hippocampal slice cultures for human paired helical filaments (PHFs). The pathogenic PHF was undetectable in control tissue, FIG. 2A, whereas cellular accumulation of PHF was evident after 6 days of chloroquine treatment followed by 2 days of washout, FIG. 2B. […] Size bar: 16 μm.

APPSwInd mice = assay: Rotarod performance of APPSwInd mice; assay type: in vivo; conditions: trials on the 8th and 9th injection days
Experimental: (§3) The improvement of synaptic integrity by PADK was also associated with the reduction of behavioral deficits in the mouse models. FIG. 9C is a bar graph showing rotorod performance for several groups of mice. […] FIG. 9D is a bar graph illustrating spontaneous alternation behavior in the second type of Alzheimer's mouse model (APPswe/PS1ΔE9). APPswe/PS1ΔE9 mice treated with vehicle or PADK were tested on the hippocampal-dependent task of spontaneous alternation behavior in a T-maze. The mice were allowed to explore starting from the intersection of a T-maze, and were monitored for the order of entries into the three arms (arms A, B, and C). In control mice, every third explored arm is usually different than the previous two (e.g., A-B-C, B-A-C, etc.; the third decision being an alternation). Alzheimer's mice, on the other hand, frequently go back into one of the previous two arms explored (e.g., A-B-A, C-B-B), thus reducing the percent alternations. […] Open field mobility assessment confirmed no change in exploratory mobility across the different groups of mice.

APPswe/PS1ΔE9 mice = assay: Spontaneous alternation behavior in a T-maze, APPswe/PS1ΔE9 mice; assay type: in vivo
Experimental: as §3

cathepsin B = assay: In vivo lysosomal modulation by PADK in mice
Experimental: The enhanced cathepsin staining was evident in many brain regions and co-localized with the lysosomal marker LAMP-1.
as §1, §2

Structure (SMILES): CCCCC(NC(=O)C=[N+]=[N-])C(=O)OC (racemic) [diazoacetyl-DL-2-aminohexanoic acid methyl ester]
- concentration required to produce neuroprotective effects (cathepsin): up to 30 μM

- EC50 (cathepsin D): 20 µM
Structure (SMILES): O=C(NC(Cc1ccccc1)[C@H](O)CNCc1ccccc1)OCc1ccccc1 (stereo partly drawn) [BW1001, (2R,3S)-3-Cbz amino-2-hydroxy-4-phenyl-1-benzyl amino butane]

- EC50 (cathepsin D): 3 µM
Structure (SMILES): CC(=O)N(Cc1ccccc1)C[C@@H](O)C(Cc1ccccc1)NC(=O)OCc1ccccc1 (stereo partly drawn) [BW1002, (2R,3S)-3-Cbz amino-2-hydroxy-4-phenyl-1-(N-benzylacetamido) butane]
- synaptic decline (pre- and postsynaptic markers) [1]: did not cause synaptic decline or LDH release
- LDH release [2]: did not cause synaptic decline or LDH release

- EC50 (cathepsin D): 2 µM
- synaptic decline (pre- and postsynaptic markers) [1]: caused evident synaptic decline
- LDH release as % of maximal LDH release produced by total cellular disruption (1% TX-100) ([2]; after 6 days of treatment): < 2%
- LDH release [2]: time-dependent increase in LDH activity
Structure (SMILES): [N-]=[N+]=CC(=O)N(Cc1ccccc1)C[C@@H](O)[C@H](Cc1ccccc1)NC(=O)OCc1ccccc1 [BW1003, (2R,3S)-3-Cbz amino-2-hydroxy-4-phenyl-1-(N-benzyl-2-diazo-ethanamido) butane]

- EC50 (cathepsin D): 20 µM
Structure (SMILES): CC(=O)N(Cc1cccc2ccccc12)C[C@@H](O)[C@H](Cc1ccccc1)NC(=O)OCc1ccccc1 [BW1004, (2R,3S)-3-Cbz amino-2-hydroxy-4-phenyl-1-(N-naphthylmethylethanamido) butane]
- potency of increasing cathepsin D levels (in words) (cathepsin D): potencies at or near that of PADK
- LDH release [3]: did not produce evident toxicity
- synaptic decline (pre- and postsynaptic markers) [4]: did not produce evident toxicity

- EC50 (cathepsin D): 15 µM
Structure (SMILES): O=C(NC(Cc1ccccc1)[C@H](O)CN(Cc1ccccc1)C(=O)c1ccccc1)OCc1ccccc1 (stereo partly drawn) [BW1005, (2R,3S)-3-Cbz amino-2-hydroxy-4-phenyl-1-(N-benzylbenzamide) butane]
- potency of increasing cathepsin D levels (in words) (cathepsin D): potencies at or near that of PADK
- synaptic decline (pre- and postsynaptic markers) [1]: did not cause synaptic decline or LDH release
- synaptic protection: postsynaptic marker GluR1 in brain [5]: significant synaptic protection; also recorded: greater than that provided by PADK
- LDH release [2]: did not cause synaptic decline or LDH release

- EC50 (cathepsin D; unit μm [sic]): 10 µM
Structure (SMILES): C[C@H](NC(=O)[C@H](Cc1ccccc1)NC(=O)OCc1ccccc1)C(=O)C=[N+]=[N-] [PADK, Z-Phe-Ala-diazomethylketone]
- EC2-fold (concentration needed for a 2-fold increase in cathepsin levels) (cathepsin D): 3.2 µM
- proform and active form of cathepsin D (cathepsin D; slices treated daily for 3 days, immunoblot): increased
- GluR1 deficit [6]: significantly reduced the GluR1 deficit
- rat brain levels of cathepsins B and D (cathepsins B and D): significant increases
- synaptic decline (pre- and postsynaptic markers) [1]: did not cause synaptic decline or LDH release
- ALT (damage to liver function) [7]: no change in either ALT or BUN
- BUN (kidney compromise) [7]: no change in either ALT or BUN
- adverse effects on synaptic markers GluR1 and synaptophysin [7]: No adverse effects were evident
- motor skills and coordination (variable-speed rotating rod) [7]: did not impair motor skills, coordination, or spatial memory
- spatial memory (CPP North-South paradigm) [7]: did not impair motor skills, coordination, or spatial memory
- clearance of chloroquine-induced PHF deposits in CA1 neurons [8]: clearance of most neuronal deposits of PHF material
- LDH release [2]: did not cause synaptic decline or LDH release
- Rotarod performance across trials (APPSwInd mice): enabled the APPSwInd mice to improve across Rotarod trials
- spontaneous alternations (APPswe/PS1ΔE9 mice): significantly improved alternations
- immunostaining for the active form of cathepsin B in hippocampal cells (cathepsin B; 10-12-month old mice, 9 daily i.p. injections): dramatic increase in immunostaining
- cathepsin levels in hippocampal homogenates (cathepsin B; 10 month old mice, across different dosages): dose-dependent increases in cathepsin levels

- EC50 (cathepsin D; unit μm [sic]): 14 µM
Structure (SMILES): [N-]=[N+]=CC(=O)[C@H](Cc1ccccc1)NC(=O)[C@H](Cc1ccccc1)NC(=O)OCc1ccccc1 [PPDK, Z-Phe-Phe-diazomethylketone] (Cbz-Phe-Phe-CHN2)
- EC2-fold (concentration needed for a 2-fold increase in cathepsin levels) (cathepsin D): ~5 µM
